Test results published in ChEMBL document CHEMBL4002627, “Quinolidene based monocarbonyl curcumin analogues as promising antimycobacterial agents: Synthesis and molecular docking study” (Bioorg Med Chem Lett, 2017).
Values after ≈ are worked out from the molar mass of the structure shown.

Tests used:
[1] = Selectivity index, ratio of GI90 for human HCT116 cells to MIC90 for dormant state of Mycobacterium tuberculosis H37Ra; assay type: toxicity; conditions: read-out: Selectivity Index
[2] = (§1) Cytotoxicity against human HCT116 cells assessed as growth inhibition after 48 hrs by MTT assay; assay type: cell-based, HCT-116; conditions: HCT116 cells
HCT-116 = assay: as §1; assay type: cell-based; conditions: hct-116, 48 h
[3] = Selectivity index, ratio of GI90 for human A549 cells to MIC90 for dormant state of dormant state of Mycobacterium bovis BCG; assay type: toxicity; conditions: read-out: Selectivity Index
[4] = Selectivity index, ratio of GI90 for human MCF7 cells to MIC90 for dormant state of Mycobacterium tuberculosis H37Ra; assay type: toxicity; conditions: read-out: Selectivity Index
MCF7 = assay: (§2) Cytotoxicity against human MCF7 cells assessed as growth inhibition after 48 hrs by MTT assay; assay type: cell-based; conditions: mcf7, 48 h
[5] = as §2; assay type: cell-based; conditions: MCF7 cells
[6] = tested on: Mycobacterium tuberculosis; assay: Antimycobacterial activity against dormant state of Mycobacterium tuberculosis H37Ra assessed as growth inhibition at 3 ug/ml after 12 days by XTT reduction menadione assay relative to control; assay type: functional; conditions: 288 h, read-out: GI
[7] = tested on: Mycobacterium tuberculosis; assay: Antimycobacterial activity against dormant state of Mycobacterium tuberculosis H37Ra assessed as growth inhibition at 30 ug/ml after 12 days by XTT reduction menadione assay relative to control; assay type: functional; conditions: 288 h, read-out: GI
[8] = Cytotoxicity against human HCT116 cells assessed as growth inhibition at 30 ug/ml after 48 hrs by MTT assay relative to control; assay type: cell-based, HCT-116; conditions: read-out: GI
[9] = Selectivity index, ratio of GI90 for human HCT116 cells to MIC90 for dormant state of dormant state of Mycobacterium bovis BCG; assay type: toxicity; conditions: read-out: Selectivity Index
[10] = Cytotoxicity against human A549 cells assessed as growth inhibition at 30 ug/ml after 48 hrs by MTT assay relative to control; assay type: cell-based; conditions: read-out: GI
[11] = Cytotoxicity against human MCF7 cells assessed as growth inhibition at 10 ug/ml after 48 hrs by MTT assay relative to control; assay type: cell-based; conditions: read-out: GI
[12] = Cytotoxicity against human A549 cells assessed as growth inhibition at 10 ug/ml after 48 hrs by MTT assay relative to control; assay type: cell-based; conditions: read-out: GI
Pseudomonas fluorescens = assay: Antibacterial activity against Pseudomonas fluorescens ATCC 13525 after 8 hrs; assay type: functional; conditions: ATCC 13525, 8 h
Staphylococcus aureus = assay: Antibacterial activity against Staphylococcus aureus ATCC 29213 after 12 hrs; assay type: functional; conditions: ATCC 29213, 12 h
[13] = Cytotoxicity against human HCT116 cells assessed as growth inhibition at 3 ug/ml after 48 hrs by MTT assay relative to control; assay type: cell-based, HCT-116; conditions: read-out: GI
[14] = Cytotoxicity against human MCF7 cells assessed as growth inhibition at 3 ug/ml after 48 hrs by MTT assay relative to control; assay type: cell-based; conditions: read-out: GI
[15] = tested on: Mycobacterium tuberculosis; assay: Antimycobacterial activity against dormant state of Mycobacterium tuberculosis H37Ra assessed as growth inhibition at 10 ug/ml after 12 days by XTT reduction menadione assay relative to control; assay type: functional; conditions: 288 h, read-out: GI
A549 = assay: (§3) Cytotoxicity against human A549 cells assessed as growth inhibition after 48 hrs by MTT assay; assay type: cell-based; conditions: a549, 48 h
[16] = as §3; assay type: cell-based; conditions: A549 cells
[17] = Cytotoxicity against human MCF7 cells assessed as growth inhibition at 30 ug/ml after 48 hrs by MTT assay relative to control; assay type: cell-based; conditions: read-out: GI
Escherichia coli = assay: Antibacterial activity against Escherichia coli ATCC […] after 8 hrs; assay type: functional
[18] = Cytotoxicity against human A549 cells assessed as growth inhibition at 3 ug/ml after 48 hrs by MTT assay relative to control; assay type: cell-based; conditions: read-out: GI
[19] = Selectivity index, ratio of GI90 for human A549 cells to MIC90 for dormant state of Mycobacterium tuberculosis H37Ra; assay type: toxicity; conditions: read-out: Selectivity Index
[20] = Cytotoxicity against human HCT116 cells assessed as growth inhibition at 10 ug/ml after 48 hrs by MTT assay relative to control; assay type: cell-based, HCT-116; conditions: read-out: GI
[21] = Selectivity index, ratio of GI90 for human MCF7 cells to MIC90 for dormant state of dormant state of Mycobacterium bovis BCG; assay type: toxicity; conditions: read-out: Selectivity Index
[22] = tested on: Mycobacterium tuberculosis; assay: Antimycobacterial activity against dormant state of Mycobacterium tuberculosis H37Ra by two fold dilution method; assay type: functional
Bacillus subtilis = assay: Antibacterial activity against Bacillus subtilis ATCC 23857 after 12 hrs; assay type: functional; conditions: ATCC 23857, 12 h

| Structure (SMILES) | GI50 at 48 h [2] [µg/mL] | GI90 (HCT-116) [µg/mL] | GI90 (MCF7) [µg/mL] | GI50 at 48 h [5] [µg/mL] | inhibition of growth at 3 µg/mL [6] [%] | inhibition of growth at 30 µg/mL [7] [%] | inhibition at 48 h, 30 ug/ml [8] [%] | inhibition at 48 h, 30 ug/ml [10] [%] | inhibition at 48 h, 10 ug/ml [11] [%] | inhibition at 48 h, 10 ug/ml [12] [%] | MIC50 (Pseudomonas fluorescens) [µg/mL] | MIC90 (Pseudomonas fluorescens) [µg/mL] | MIC50 (Staphylococcus aureus) [µg/mL] | MIC90 (Staphylococcus aureus) [µg/mL] | inhibition at 48 h, 3 ug/ml [13] [%] | inhibition at 48 h, 3 ug/ml [14] [%] | GI90 (A549) [µg/mL] | GI50 at 48 h [16] [µg/mL] | MIC50 [22] [µg/mL] | MIC90 [22] [µg/mL] | also measured |
| --- | --- | --- | --- | --- | --- | --- | --- | --- | --- | --- | --- | --- | --- | --- | --- | --- | --- | --- | --- | --- | --- |
| COc1ccc2cc(/C=C3\CNC/C(=C\c4cc5ccc(OC)cc5nc4Cl)C3=O)c(Cl)nc2c1 | > 100 | > 100 | > 100 | > 100 | 50.9 | 65.6 | 67.7 | 36.3 | 52.1 | 29.8 | > 30 | > 30 | > 30 | > 30 | 26.9 | 28 | > 100 | > 100 | 2.8 (≈ 5.53 µM) | > 30 | selectivity ratio [1]: > 3; selectivity ratio [3]: > 37; selectivity ratio [4]: > 3; selectivity ratio [9]: > 37; inhibition of growth at 10 µg/mL [15]: 54.2%; inhibition at 48 h, 30 ug/ml [17]: 60.9%; MIC50 (Escherichia coli): > 30 µg/mL; MIC90 (Escherichia coli): > 30 µg/mL; inhibition at 48 h, 3 ug/ml [18]: 3.8%; selectivity ratio [19]: > 3; inhibition at 48 h, 10 ug/ml [20]: 50.9%; selectivity ratio [21]: > 37; MIC50 (Bacillus subtilis): > 30 µg/mL; MIC90 (Bacillus subtilis): > 30 µg/mL |
| Cc1ccc2cc(/C=C3\CNC/C(=C\c4cc5ccc(C)cc5nc4Cl)C3=O)c(Cl)nc2c1 | > 100 | > 100 | > 100 | > 100 | 5.8 | 98.3 | 33.8 | 0 | 10.1 | -16.9 | > 30 | > 30 | > 30 | > 30 | 29.7 | -3.4 | > 100 | > 100 | 8.7 (≈ 18.3 µM) | 25.5 (≈ 53.8 µM) | inhibition of growth at 10 µg/mL [15]: 61.2%; inhibition at 48 h, 30 ug/ml [17]: 15.7%; MIC50 (Escherichia coli): > 30 µg/mL; MIC90 (Escherichia coli): > 30 µg/mL; inhibition at 48 h, 3 ug/ml [18]: 5.4%; inhibition at 48 h, 10 ug/ml [20]: 30.9%; MIC50 (Bacillus subtilis): > 30 µg/mL; MIC90 (Bacillus subtilis): > 30 µg/mL |
| COc1ccc2cc(/C=C3\CN(C)C/C(=C\c4cc5ccc(OC)cc5nc4Cl)C3=O)c(Cl)nc2c1 | > 100 | > 100 | > 100 | > 100 | 66.1 | 98.9 | 14.1 | 0 | -5.5 | 0 | > 30 | > 30 | > 30 | > 30 | -8.6 | -13.4 | > 100 | > 100 | 2.3 (≈ 4.42 µM) | 7.8 (≈ 15 µM) | selectivity ratio [1]: > 12; selectivity ratio [3]: > 10; selectivity ratio [4]: > 12; selectivity ratio [9]: > 10; inhibition of growth at 10 µg/mL [15]: 100%; inhibition at 48 h, 30 ug/ml [17]: 44.1%; MIC50 (Escherichia coli): > 30 µg/mL; MIC90 (Escherichia coli): > 30 µg/mL; inhibition at 48 h, 3 ug/ml [18]: 0%; selectivity ratio [19]: > 12; inhibition at 48 h, 10 ug/ml [20]: -1.3%; selectivity ratio [21]: > 10; MIC50 (Bacillus subtilis): > 30 µg/mL; MIC90 (Bacillus subtilis): > 30 µg/mL |
| COc1ccc2nc(Cl)c(/C=C3\CNC/C(=C\c4cc5cc(OC)ccc5nc4Cl)C3=O)cc2c1 | 9.83 (≈ 19.4 µM) | > 100 | > 100 | 8.93 (≈ 17.6 µM) | 31.2 | 95.4 | 0 | 0 | 32.5 | 0 | > 30 | > 30 | > 30 | > 30 | 0 | 4.7 | > 100 | > 100 | 12.1 (≈ 23.9 µM) | 27.9 (≈ 55.1 µM) | inhibition of growth at 10 µg/mL [15]: 44.7%; inhibition at 48 h, 30 ug/ml [17]: 27.4%; MIC50 (Escherichia coli): > 30 µg/mL; MIC90 (Escherichia coli): > 30 µg/mL; inhibition at 48 h, 3 ug/ml [18]: 0%; inhibition at 48 h, 10 ug/ml [20]: 0%; MIC50 (Bacillus subtilis): > 30 µg/mL; MIC90 (Bacillus subtilis): > 30 µg/mL |
| CN1C/C(=C\c2cc3ccccc3nc2Cl)C(=O)/C(=C/c2cc3ccccc3nc2Cl)C1 | > 100 | > 100 | > 100 | > 100 | 15.6 | 98 | -20.1 | -16.9 | 24.3 | 0 | > 30 | > 30 | > 30 | > 30 | -0.3 | 11.4 | > 100 | > 100 | 6.7 (≈ 14.6 µM) | 26.5 (≈ 57.6 µM) | selectivity ratio [1]: > 3; selectivity ratio [3]: > 13; selectivity ratio [4]: > 3; selectivity ratio [9]: > 13; inhibition of growth at 10 µg/mL [15]: 51.9%; inhibition at 48 h, 30 ug/ml [17]: 35.1%; MIC50 (Escherichia coli): > 30 µg/mL; MIC90 (Escherichia coli): > 30 µg/mL; inhibition at 48 h, 3 ug/ml [18]: -14.6%; selectivity ratio [19]: > 3; inhibition at 48 h, 10 ug/ml [20]: -15.2%; selectivity ratio [21]: > 13; MIC50 (Bacillus subtilis): > 30 µg/mL; MIC90 (Bacillus subtilis): > 30 µg/mL |
| O=C1/C(=C/c2cc3cc(F)ccc3nc2Cl)CNC/C1=C\c1cc2cc(F)ccc2nc1Cl | 27.6 (≈ 57.1 µM) | > 100 | > 100 | > 100 | 41.1 | 76.9 | 55.8 | 0 | 41.1 | 0 | > 30 | > 30 | > 30 | > 30 | 35 | 40.9 | > 100 | > 100 | 13.7 (≈ 28.4 µM) | > 30 | selectivity ratio [1]: > 3; selectivity ratio [3]: > 10; selectivity ratio [4]: > 3; selectivity ratio [9]: > 10; inhibition of growth at 10 µg/mL [15]: 49%; inhibition at 48 h, 30 ug/ml [17]: 48.5%; MIC50 (Escherichia coli): > 30 µg/mL; MIC90 (Escherichia coli): > 30 µg/mL; inhibition at 48 h, 3 ug/ml [18]: -5.8%; selectivity ratio [19]: > 3; inhibition at 48 h, 10 ug/ml [20]: 45.3%; selectivity ratio [21]: > 10; MIC50 (Bacillus subtilis): > 30 µg/mL; MIC90 (Bacillus subtilis): > 30 µg/mL |
| CO[C@H]1/C=C/O[C@@]2(C)Oc3c(C)c(O)c4c(O)c(c(/C=N/N5CCN(C)CC5)c(O)c4c3C2=O)NC(=O)/C(C)=C\C=C\[C@H](C)[C@H](O)[C@@H](C)[C@@H](O)[C@@H](C)[C@H](OC(C)=O)[C@@H]1C [RIFAMPIN] | > 100 | > 100 | > 100 | > 100 | – | – | – | – | – | – | – | – | – | – | – | – | > 100 | > 100 | 0.0019 (≈ 0.00231 µM) | 0.02 (≈ 0.0243 µM) | selectivity ratio [1]: > 133; selectivity ratio [3]: > 123; selectivity ratio [4]: > 133; selectivity ratio [9]: > 123; selectivity ratio [19]: > 133; selectivity ratio [21]: > 123 |
